Assay results: patent US20240270821A1, “GIP/GLP1/GCG TRI-RECEPTOR AGONISTS AND USES THEREOF” (priority 2023, published 2024)
Like-named read-outs stand apart in the source and are kept apart here. Starred links: 1 amine or outer side, 2 acyl side, 3 side chain; linkers in the order of their positions; H or OH if unused. Non-standard residues stand in square brackets, D forms with d. Residues, ends and D or L forms follow the SMILES beside them. Groups on a side chain read outwards from the residue. No end group written: not given here. *: point of attachment. C20 diacid = O=C(O)CCCCCCCCCCCCCCCCCCC(=O)*; C18 diacid = O=C(O)CCCCCCCCCCCCCCCCC(=O)*; αMePhe(2-F) = C[C@](N)(Cc1ccccc1F)C(=O)O; γGlu = O=C(O)[C@H](CCC(=O)[*:2])N[*:1]; NMeY = CN[C@@H](Cc1ccc(O)cc1)C(=O)O; αMe4Pal = C[C@](N)(Cc1ccncc1)C(=O)O; αMeY = C[C@](N)(Cc1ccc(O)cc1)C(=O)O; 4Pal = N[C@@H](Cc1ccncc1)C(=O)O; αMeL = CC(C)C[C@](C)(N)C(=O)O; αMeS = C[C@](N)(CO)C(=O)O; Orn = NCCC[C@H](N)C(=O)O; AEEA = NCCOCCOCC(=O)O; Aib = CC(C)(N)C(=O)O

How the values were obtained:
Type in all cases: cell-based
hGIPR [1] = target: T1, hGIPR (Homo sapiens, UniProt P48546); experiment: Functional cAMP activation in the presence of 0.1% casein (no HSA); details: read-out: Relative cAMP EC50, hGIPR;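 also: intracellular cAMP rise after 30 min at 37 °C read by HTRF against a standard curve, scaled between buffer alone (0%) and top control ligand concentration (100%), four-parameter fit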
T1 sequence (P48546 22-466): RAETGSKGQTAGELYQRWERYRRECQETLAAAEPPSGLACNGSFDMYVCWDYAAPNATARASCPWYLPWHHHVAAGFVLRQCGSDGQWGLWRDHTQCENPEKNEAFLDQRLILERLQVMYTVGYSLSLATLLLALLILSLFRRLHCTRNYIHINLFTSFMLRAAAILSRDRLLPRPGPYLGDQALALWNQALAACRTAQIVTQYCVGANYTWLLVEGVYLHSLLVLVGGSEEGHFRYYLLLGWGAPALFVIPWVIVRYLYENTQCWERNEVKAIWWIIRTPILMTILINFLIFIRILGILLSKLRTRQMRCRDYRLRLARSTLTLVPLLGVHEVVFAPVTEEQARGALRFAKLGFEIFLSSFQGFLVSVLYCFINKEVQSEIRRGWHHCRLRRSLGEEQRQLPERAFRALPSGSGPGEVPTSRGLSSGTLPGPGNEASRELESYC

hGLP-1R [2] = target: T2, hGLP-1R (Homo sapiens, UniProt P43220); experiment: Functional cAMP activity in the presence of 1% HSA; details: read-out: cAMP Rel EC50, hGLP-1R
T2 sequence (P43220 24-463): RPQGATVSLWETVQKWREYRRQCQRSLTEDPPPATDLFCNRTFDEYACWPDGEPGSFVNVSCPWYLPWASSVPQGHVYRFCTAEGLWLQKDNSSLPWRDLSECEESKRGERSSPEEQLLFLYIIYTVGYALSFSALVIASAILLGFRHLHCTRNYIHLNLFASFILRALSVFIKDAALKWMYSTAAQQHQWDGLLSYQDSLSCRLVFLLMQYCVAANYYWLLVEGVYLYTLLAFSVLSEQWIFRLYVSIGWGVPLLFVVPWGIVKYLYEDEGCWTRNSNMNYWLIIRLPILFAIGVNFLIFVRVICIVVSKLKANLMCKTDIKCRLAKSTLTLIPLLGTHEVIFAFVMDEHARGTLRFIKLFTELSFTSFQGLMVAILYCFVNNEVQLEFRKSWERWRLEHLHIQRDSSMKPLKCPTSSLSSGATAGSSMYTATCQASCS

human GcgR = human GcgR (Homo sapiens, UniProt P47871); experiment: Functional cAMP activity in the presence of 1% HSA; details: read-out: cAMP Rel EC50, hGcgR
Sequence of human GcgR (P47871 26-477): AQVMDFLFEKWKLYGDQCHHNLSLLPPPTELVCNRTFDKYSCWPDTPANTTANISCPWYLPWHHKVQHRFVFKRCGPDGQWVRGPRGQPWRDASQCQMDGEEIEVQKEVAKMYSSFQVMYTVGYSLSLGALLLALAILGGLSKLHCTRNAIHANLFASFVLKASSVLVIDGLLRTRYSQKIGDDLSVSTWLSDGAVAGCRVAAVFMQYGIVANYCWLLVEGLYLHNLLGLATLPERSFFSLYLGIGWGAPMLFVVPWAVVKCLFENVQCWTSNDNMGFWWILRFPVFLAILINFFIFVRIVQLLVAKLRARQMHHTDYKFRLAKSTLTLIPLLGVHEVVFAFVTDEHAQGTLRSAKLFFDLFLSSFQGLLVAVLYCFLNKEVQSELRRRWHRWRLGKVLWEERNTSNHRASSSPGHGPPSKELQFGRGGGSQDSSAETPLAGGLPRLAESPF

hGLP-1R [3] = target: T2, hGLP-1R; experiment: Functional cAMP activation in the presence of 0.1% casein (no HSA); details: read-out: Relative cAMP EC50, hGLP-1R;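 as to Relative cAMP EC50, hGLP-1R: intracellular cAMP rise after 30 min at 37 °C read by HTRF, normalized between buffer only (0%) and maximal control ligand (100%), four-parameter variable-slope fit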;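 as to Relative cAMP EC50, hGcgR: intracellular cAMP rise after 30 min at 37 °C, read by HTRF against a cAMP standard curve, scaled from buffer only (0%) to maximal control ligand response (100%)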
hGcgR = hGcgR (Homo sapiens, UniProt P47871); experiment: as above; details: read-out: Relative cAMP EC50, hGcgR;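 also: intracellular cAMP rise after 30 min at 37 °C, read by HTRF against a cAMP standard curve, scaled from buffer only (0%) to maximal control ligand response (100%)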
Sequence of hGcgR (P47871 26-477): as above

hGIPR [4] = target: T1, hGIPR; experiment: Functional cAMP activity in the presence of 1% HSA; details: read-out: cAMP Rel EC50, hGIPR
[5] = in the presence of 0.1% casein (no HSA), geometric mean

| Molecule | EC50 (hGIPR [1]; [5]) | EC50 (hGLP-1R [2]) | EC50 (human GcgR) | EC50 (hGLP-1R [3]; [5]) | EC50 (hGcgR; [5]) | EC50 (hGIPR [4]) | EC50 (hGIPR [1]) | EC50 (hGLP-1R [3]) | EC50 (hGcgR) |
| --- | --- | --- | --- | --- | --- | --- | --- | --- | --- |
| CC[C@H](C)[C@H](NC(=O)[C@H](Cc1ccccc1)NC(=O)[C@H](CCCN)NC(=O)C(C)(C)NC(=O)[C@H](CCC(N)=O)NC(=O)[C@H](C)NC(=O)[C@H](CCCCNC(=O)COCCOCCNC(=O)CC[C@H](NC(=O)CCCCCCCCCCCCCCCCC(=O)O)C(=O)O)NC(=O)[C@H](CCCN)NC(=O)[C@H](CC(=O)O)NC(=O)[C@H](CC(C)C)NC(=O)[C@](C)(CC(C)C)NC(=O)[C@@H](NC(=O)[C@H](CO)NC(=O)[C@H](Cc1ccncc1)NC(=O)[C@H](CC(=O)O)NC(=O)[C@H](CO)NC(=O)[C@@H](NC(=O)[C@](C)(Cc1ccccc1F)NC(=O)[C@@H](NC(=O)CNC(=O)[C@H](CCC(N)=O)NC(=O)C(C)(C)NC(=O)[C@@H](N)Cc1ccc(O)cc1)[C@@H](C)O)[C@@H](C)O)[C@@H](C)CC)C(=O)N[C@H](CCC(=O)O)C(=O)N[C@@](C)(Cc1ccc(O)cc1)C(=O)N[C@@H](CC(C)C)C(=O)N[C@@H](CC(C)C)C(=O)N[C@@H](CCC(=O)O)C(=O)NCC(=O)NCC(=O)N1CCC[C@H]1C(=O)N[C@@H](CO)C(=O)N[C@@H](CO)C(=O)NCC(=O)N[C@@H](CCC(=O)O)C(=O)N1CCC[C@H]1C(=O)N1CCC[C@H]1C(=O)N1CCC[C@H]1C(=O)N[C@@H](CCC(=O)O)C(N)=O [Example 370] (H-Y[Aib]QGT[αMePhe(2-F)]TSD[4Pal]SI[αMeL]LD[Orn]K([AEEA-γGlu-C18 diacid])AQ[Aib][Orn]FI[dE][αMeY]LLEGGPSSGEPPPE-NH2) | 0.027 nM | 37.5 nM | 803 nM | 0.406 nM | 7.06 nM | 4.23 nM | – | – | – |
| H-Y[Aib]QGT[αMePhe(2-F)]TSD[4Pal][αMeS]I[αMeL]LD[Orn]K([AEEA-γGlu-C18 diacid])AA[Aib]EFI[dE][αMeY]LIEGGPSSGEPPPSGGGE-NH2 [Example 746] | – | 38.6 nM | 255 nM | – | – | 1.44 nM | 0.0119 nM | 0.261 nM | 1.62 nM |
| H-Y[Aib]QGTFTSD[4Pal]SQ[αMeL]LDKK([γGlu-γGlu-C18 diacid])AQ[αMe4Pal]AFIE[αMe4Pal]LIE[Aib]GPSSGEPPPSGSEE-NH2 [Example 1125] | 0.173 nM | 243 nM | 264 nM | 8.26 nM | 5.83 nM | 3.95 nM | – | – | – |
| H-Y[Aib]QGT[αMePhe(2-F)]TSDYSKLLDKIAQK([AEEA-γGlu-C20 diacid])[Orn]FIEWLIEGGPSSGEPPPSEG-NH2 [Example 310] | 0.0939 nM | 177 nM | 4000 nM | 0.586 nM | 3.52 nM | 15 nM | – | – | – |
| H-Y[Aib]QGT[αMePhe(2-F)]TSD[4Pal]SI[αMeL]LD[Orn]K([AEEA-γGlu-C18 diacid])AQ[αMe4Pal]EFI[dE][αMeY]LLEGGPSSGAPPPSGE-NH2 [Example 615] | – | 82.9 nM | 697 nM | – | – | 0.95 nM | 0.00825 nM | 0.575 nM | 3.93 nM |
| H-Y[Aib]QGT[αMePhe(2-F)]TSD[4Pal][αMeS]I[αMeL]LD[Orn]K([AEEA-γGlu-C18 diacid])AQ[αMe4Pal]EFI[dE][αMeY]LIEGGPSSGAPPPSGSEE-NH2 [Example 713] | – | 37.7 nM | 180 nM | – | – | 0.879 nM | 0.00928 nM | 0.331 nM | 1.71 nM |
| H-Y[Aib]QGTFTSD[4Pal]SQ[αMeL]LDKK([γGlu-γGlu-C18 diacid])AQ[αMe4Pal]AFIEYLIE[Aib]GPSSGAPPPSGSEEE-NH2 [Example 900] | 0.173 nM | 666 nM | 885 nM | 3.99 nM | 4.74 nM | 17 nM | – | – | – |
| H-Y[Aib]QGT[αMePhe(2-F)]TSD[4Pal]SI[αMeL]LD[Orn]K([γGlu-γGlu-C18 diacid])AQ[αMe4Pal]EFI[dE][αMeY]LAEGGPSSGAPPPSGS-NH2 [Example 646] | – | 90.5 nM | 1260 nM | – | – | 1.09 nM | 0.0336 nM | 2.58 nM | 23.1 nM |
| H-Y[Aib]QGTFTSDFSK[αMeL]LDKK([AEEA-γGlu-C20 diacid])AQ[Aib]AFIEWLLAGGPSSGEPPPSEG-NH2 [Example 20] | 0.381 nM | 326 nM | 587 nM | 2.45 nM | 15.4 nM | 42.3 nM | – | – | – |
| H-Y[Aib]QGTFTSDFS[Orn][αMeL]LDKK([AEEA-AEEA-γGlu-C18 diacid])AQ[Aib]AFIEYLLE[Aib]GPSSGAPPPEGS-NH2 [Example 194] | 0.212 nM | 697 nM | 813 nM | 4.69 nM | 4.32 nM | 19.7 nM | – | – | – |
| H-Y[Aib]QGTFTSDFS[Orn][αMeL]LDKK([AEEA-γGlu-C18 diacid])AQ[Aib]AFIEYLLAGGPSSGAPPPSGE[AEEA]-NH2 [Example 91] | 0.243 nM | 356 nM | 1200 nM | 3.39 nM | 9.13 nM | 23.9 nM | – | – | – |
| CC[C@H](C)[C@H](NC(=O)[C@H](Cc1ccccc1)NC(=O)[C@H](C)NC(=O)[C@](C)(Cc1ccncc1)NC(=O)[C@H](CCC(N)=O)NC(=O)[C@H](C)NC(=O)[C@H](CCCCNC(=O)COCCOCCNC(=O)CC[C@H](NC(=O)CC[C@H](NC(=O)CCCCCCCCCCCCCCCCC(=O)O)C(=O)O)C(=O)O)NC(=O)[C@H](CCCN)NC(=O)[C@H](CC(=O)O)NC(=O)[C@H](CC(C)C)NC(=O)[C@](C)(CC(C)C)NC(=O)[C@H](CCC(N)=O)NC(=O)[C@H](CO)NC(=O)[C@H](Cc1ccncc1)NC(=O)[C@H](CC(=O)O)NC(=O)[C@H](CO)NC(=O)[C@@H](NC(=O)[C@H](Cc1ccccc1)NC(=O)[C@@H](NC(=O)CNC(=O)[C@H](CCC(N)=O)NC(=O)C(C)(C)NC(=O)[C@@H](N)Cc1ccc(O)cc1)[C@@H](C)O)[C@@H](C)O)C(=O)N[C@@H](CCC(=O)O)C(=O)N[C@@H](Cc1ccc(O)cc1)C(=O)N[C@@H](CC(C)C)C(=O)N[C@H](C(=O)N[C@@H](CCC(=O)O)C(=O)N[C@H](C)C(=O)NCC(=O)N1CCC[C@H]1C(=O)N[C@@H](CO)C(=O)N[C@@H](CO)C(=O)NCC(=O)N[C@@H](C)C(=O)N1CCC[C@H]1C(=O)N1CCC[C@H]1C(=O)N1CCC[C@H]1C(=O)N[C@@H](CO)C(=O)NCC(=O)N[C@@H](CO)C(=O)N[C@@H](CCC(=O)O)C(N)=O)[C@@H](C)CC [Example 1022] | 0.35 nM | 203 nM | 586 nM | 3.28 nM | 6.93 nM | 27.9 nM | – | – | – |
| Y[Aib]QGT[αMePhe(2-F)]TSD[4Pal][αMeS]I[αMeL]LD[Orn]K([γGlu-γGlu-C18 diacid])AA[Aib]EFI[dE][αMeY]LIEGGPSSGEPPPSGGGE-NH2 [Example 748] | – | 22.9 nM | 156 nM | – | – | 0.865 nM | 0.0105 nM | 0.258 nM | 1.42 nM |
| H-[NMeY][Aib]QGTFTSD[4Pal][αMeS]Q[αMeL]LD[Orn]K([dE-γGlu-C18 diacid])AQ[αMe4Pal]QFIQ[αMeY]LIE[Aib]GPSSGAPPPSGGGE-NH2 [Example 1134] | 0.0391 nM | 78.9 nM | 180 nM | 0.957 nM | 2.57 nM | 2.41 nM | – | – | – |
| H-Y[Aib]QGT[αMePhe(2-F)]TSD[4Pal]SI[αMeL]LD[Orn]K([AEEA-γGlu-C18 diacid])AQ[Aib][Orn]FIEYLLEGGPSSGEPPPEEG-NH2 [Example 494] | – | 19.9 nM | 333 nM | – | – | 1.08 nM | 0.014 nM | 0.211 nM | 1.26 nM |
| H-Y[Aib]QGTFTSD[4Pal]SQ[αMeL]LDKK([AEEA-γGlu-C18 diacid])AQ[Aib]AFIEYLLE[dA]GPSS[Aib]APPPSGT-NH2 [Example 824] | 0.123 nM | 343 nM | 1110 nM | 2.43 nM | 7.92 nM | 28.9 nM | – | – | – |
| H-Y[Aib]QGTFTSDFSK[αMeL]LDKK([AEEA-γGlu-C20 diacid])AQ[Aib]AFIEYLLEGGPSSGAPPP[γGlu]EG-NH2 [Example 52] | 0.449 nM | 1250 nM | 1740 nM | 5.18 nM | 5.84 nM | 111 nM | – | – | – |
| H-Y[Aib]QGT[αMePhe(2-F)]TSD[4Pal][αMeS]I[αMeL]LD[Orn]K([γGlu-γGlu-C18 diacid])AQ[Aib][Orn]FI[dE][αMeY]LQEGGPSSGEPPPEGSEE-NH2 [Example 585] | – | 38.6 nM | 436 nM | – | – | 3.93 nM | 0.0801 nM | 0.601 nM | 6.25 nM |
| H-Y[Aib]QGT[αMePhe(2-F)]TSD[4Pal][αMeS]I[αMeL]LD[Orn]K([AEEA-γGlu-C18 diacid])AQ[αMe4Pal]EFI[dE][αMeY]LVEGGPSSGAPPPSGSE-NH2 [Example 751] | – | 32.3 nM | 267 nM | – | – | 1.27 nM | 0.00759 nM | 0.302 nM | 1.9 nM |
